Patent US12240827B2, “Serotonin 5-HT2B inhibitory compounds” (Zoetis Services LLC, priority 2019, dated 2025)

Legend:
hERG = target: T1, hERG (Homo sapiens, UniProt Q12809); experiment: hERG in-vitro assay, IonWorks Barracuda population patch clamp; format: cell-based; conditions: hERG/HEK293 cells; hERG current block, 5 minutes exposure
T1 construct: stably transfected with full length hERG cDNA; expressed in transfected cells; host or cells: HEK293
Experimental: Stock solutions of compounds of the invention and positive control (cisapride; 0.001-3 μM) were prepared in DMSO. Stock solutions were diluted in a HEPES-buffered physiological saline solution. Test and control solutions contained 0.3% DMSO. Human hERG/HEK293 renal epithelial cells stably transfected with full length hERG cDNA were cultured in Dulbecco's Modified Eagle Medium/Nutrient Mixture F-12 (D-MEM/F-12) supplemented with 10% fetal bovine serum, 100 U/mL penicillin G sodium, 100 μg/mL streptomycin sulfate and 500 μg/mL G418. Before testing, cells in culture dishes were rinsed with Hank's Balanced Salt Solution (HBSS) and detached with accutase. Immediately before use in the IonWorks Barracuda™ system, the cells were washed with buffered physiological saline solution (HB-PS) buffer to remove the accutase and re-suspended in 5 mL of HB-PS. The test article effects were evaluated using IonWorks Barracuda™ systems (Molecular Devices Corporation, Union City, CA). HEPES-buffered intracellular solution for whole cell recordings was loaded into the intracellular compartment of the Population Patch Clamp™ (PPC) planar electrode.
Extracellular buffer (HB-PS) was loaded into PPC planar electrode plate wells (11 μL/well). The cell suspension was pipetted into the wells of the PPC planar electrode (9 μL/well). After establishment of a whole-cell configuration (the perforated patch), membrane currents were recorded using patch clamp amplifier in the IonWorks Barracuda™ system. The current recordings were performed one (1) time before test article application to the cells (baseline) and one (1) time after application of the test article. Test article concentrations were applied to naïve cells. Each application consisted of addition of 20 μL of 2× concentrated test article solution to the total 40 μL of final volume of the extracellular well of the PPC plate. Duration of exposure to each compound concentration was five (5) minutes. hERG current was elicited using a pulse pattern with fixed amplitudes (the first conditioning pre-pulse to 10 mV for 60 second, the second conditioning pre-pulse: −90 mV for 20 ms; the test pulse: +40 mV for 100 ms) from a holding potential of 0 mV (‘zero holding’ procedure). hERG current was measured as a difference between the peak current at 1 ms and at the end of test step to +40 mV. Data acquisition and analyses were performed using the IonWorks Barracuda™ system operation software (version 2.0.2). The decrease in current amplitude after test article application was used to calculate the percent block relative to control. Results for each test article concentration (n≥1) were averaged; the mean and standard deviation values were calculated and used to generate dose-response curves.

canine 5-HT2B receptor = target: T2, canine 5-HT2B receptor (Canis lupus familiaris, UniProt Q50DZ8); experiment: Canine 5-HT2B (c5-HT2B) in-vitro assay, FLIPR calcium response; format: cell-based; conditions: CHO-K1 cells stably expressing canine 5-HT2B receptor; inhibition of EC80 serotonin calcium response
T2 construct: expressed in transfected cells; host or cells: CHO-K1
T2 sequence (Q50DZ8 1-434): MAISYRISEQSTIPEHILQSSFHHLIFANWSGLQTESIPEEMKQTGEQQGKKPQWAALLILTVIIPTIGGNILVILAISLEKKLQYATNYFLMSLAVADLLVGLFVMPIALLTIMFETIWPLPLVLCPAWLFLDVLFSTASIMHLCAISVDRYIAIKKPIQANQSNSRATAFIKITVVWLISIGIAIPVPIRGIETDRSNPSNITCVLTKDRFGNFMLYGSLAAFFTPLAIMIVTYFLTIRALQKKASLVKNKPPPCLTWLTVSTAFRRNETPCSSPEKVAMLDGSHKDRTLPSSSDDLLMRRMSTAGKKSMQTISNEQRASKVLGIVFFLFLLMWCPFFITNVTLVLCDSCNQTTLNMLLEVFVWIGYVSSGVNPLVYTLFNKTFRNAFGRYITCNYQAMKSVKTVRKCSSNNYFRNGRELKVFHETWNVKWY
Experimental: CHO-K1 cells stably expressing the canine 5-HT2B receptor were seeded at 20,000 cells per well in 20 μl culture media (DMEM with GlutaMAX™ high glucose+5% dialyzed FBS+10 mM HEPES+1×MEM Non-Essential Amino Acids of a 384-well black plate with clear bottom for at least 18 hours at 37° C. and 5% CO2. The cell plate was loaded with 20 μl/well of the FLIPR® Calcium 5 Assay kit prepared in HBSS containing calcium and magnesium supplemented with 20 mM HEPES and 5 mM Probenecid at pH 7.4 and incubated at 37° C. and 5% CO2 for 30 minutes and then an additional 30 minutes at room temperature. The intracellular calcium response was measured using the FLIPR Tetra® instrument measuring the kinetic response of the Calcium 5 dye at an excitation wavelength of 470-495 nm and emission wavelength of 515-575 nm at room temperature. The cells were initially challenged with a 5× concentration of the antagonist (10 μl/well) after an initial baseline recording and the calcium response was recorded for almost 2 minutes. After the completion of the initial antagonist challenge, the cell plate was incubated at room temperature in the FLIPR Tetra® instrument for 10 minutes. Finally, a second kinetic assay was performed after the 10 minute incubation at room temperature to measure the inhibitory response of the EC80 concentration of serotonin (15 μl/well) after an initial baseline recording. The IC50 concentration was determined for each antagonist tested.

T1 sequence (Q12809 whole entry): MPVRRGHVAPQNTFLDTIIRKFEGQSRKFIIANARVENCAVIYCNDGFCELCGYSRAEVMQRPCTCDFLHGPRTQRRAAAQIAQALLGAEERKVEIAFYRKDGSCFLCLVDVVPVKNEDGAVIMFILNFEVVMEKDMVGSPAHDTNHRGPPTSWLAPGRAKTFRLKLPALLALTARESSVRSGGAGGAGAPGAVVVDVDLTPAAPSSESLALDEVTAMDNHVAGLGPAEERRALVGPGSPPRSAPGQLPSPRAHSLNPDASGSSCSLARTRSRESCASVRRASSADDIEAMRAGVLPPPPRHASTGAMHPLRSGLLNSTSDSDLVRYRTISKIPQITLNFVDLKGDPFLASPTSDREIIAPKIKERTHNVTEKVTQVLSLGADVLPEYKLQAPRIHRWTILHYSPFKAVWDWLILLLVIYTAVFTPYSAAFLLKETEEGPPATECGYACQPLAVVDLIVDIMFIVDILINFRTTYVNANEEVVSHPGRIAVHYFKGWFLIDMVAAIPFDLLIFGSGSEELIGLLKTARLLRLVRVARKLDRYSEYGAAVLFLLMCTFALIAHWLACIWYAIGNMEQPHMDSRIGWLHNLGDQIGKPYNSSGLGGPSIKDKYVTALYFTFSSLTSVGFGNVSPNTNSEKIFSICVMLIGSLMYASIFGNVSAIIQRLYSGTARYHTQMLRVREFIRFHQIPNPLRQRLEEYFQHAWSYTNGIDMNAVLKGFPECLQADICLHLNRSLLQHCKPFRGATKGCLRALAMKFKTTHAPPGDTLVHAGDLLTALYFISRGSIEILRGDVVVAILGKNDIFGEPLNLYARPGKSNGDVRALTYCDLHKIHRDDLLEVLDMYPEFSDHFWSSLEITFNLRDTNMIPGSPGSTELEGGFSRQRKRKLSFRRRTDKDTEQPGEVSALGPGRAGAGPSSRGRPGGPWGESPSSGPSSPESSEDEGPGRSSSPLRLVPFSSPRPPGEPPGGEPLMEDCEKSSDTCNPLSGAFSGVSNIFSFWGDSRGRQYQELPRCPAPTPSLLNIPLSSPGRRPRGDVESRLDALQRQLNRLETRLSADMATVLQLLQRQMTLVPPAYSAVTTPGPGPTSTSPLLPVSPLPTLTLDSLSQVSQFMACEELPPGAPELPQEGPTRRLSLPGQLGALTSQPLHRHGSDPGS

Structure (SMILES) | IC50 (hERG) | IC50 (canine 5-HT2B receptor)
O=C(c1ccc2c(ccn2-c2ccccc2)c1)N1CCC(c2ncc[nH]2)CC1 [Example 21, (4-(1H-imidazol-2-yl)piperidin-1-yl)(1-phenyl-1H-indol-5-yl)methanone] | 4.31 µM | 3.1 nM
N#Cc1ccc(-c2ccc(C(=O)N3CCC(c4ncc[nH]4)CC3)cc2)cc1 [CA-5, 4′-(4-(1H-imidazol-2-yl)piperidine-1-carbonyl)-[1,1′-biphenyl]-4-carbonitrile, reference compound] | 0.054 µM | 453 nM
O=C(c1ccc(-c2ccccc2F)cc1)N1CCC(c2ncc[nH]2)CC1 [CA-7, (4-(1H-imidazol-2-yl)piperidin-1-yl)(2′-fluoro-[1,1′-biphenyl]-4-yl)methanone, reference compound] | 1.1 µM | 0.09 nM
O=C(c1ccc(-c2ccc(C(F)(F)F)cc2)cc1)N1CCC(c2ncc[nH]2)CC1 [Example 3, (4-(1H-imidazol-2-yl)piperidin-1-yl)(4′-(trifluoromethyl)-[1,1′-biphenyl]-4-yl)methanone] | 3.48 µM | 5.1 nM
O=C(c1ccc(Oc2ccccc2)cc1)N1CCC(c2ncc[nH]2)CC1 [Example 8, (4-(1H-imidazol-2-yl)piperidin-1-yl)(4-phenoxyphenyl)methanone] | 3.14 µM | 0.64 nM
O=C(c1ccc2c(-c3cccc4[nH]ccc34)c[nH]c2c1)N1CCC(c2ncc[nH]2)CC1 [Example 28, (4-(1H-imidazol-2-yl)piperidin-1-yl)(1H,1′H-[3,4′-biindol]-6-yl)methanone] | > 30 µM | 1.2 nM
Cc1c[nH]c(C2CCN(C(=O)c3ccc(-c4ccc(F)cc4)cc3)CC2)n1 [CA-6, (4′-fluoro-[1,1′-biphenyl]-4-yl)(4-(4-methyl-1H-imidazol-2-yl)piperidin-1-yl)methanone, reference compound] | < 0.03 µM | 7.3 nM
O=C(c1ccc(-c2ccc(C(F)(F)F)cc2)cc1)N1CCC(Cc2ncc[nH]2)CC1 [Example 12, (4-((1H-imidazol-2-yl)methyl)piperidin-1-yl)(4′-(trifluoromethyl)-[1,1′-biphenyl]-4-yl)methanone] | 4.84 µM | 63.9 nM
O=C(c1ccc(-c2ccc3c(c2)OCO3)cc1)N1CCC(c2ncc[nH]2)CC1 [Example 13, (4-(1H-imidazol-2-yl)piperidin-1-yl)(4-(benzo[d][1,3]dioxol-5-yl)phenyl)methanone] | 1.73 µM | 1.4 nM
O=C(c1ccc(Nc2ccccc2)cc1)N1CCC(c2ncc[nH]2)CC1 [Example 9, (4-(1H-imidazol-2-yl)piperidin-1-yl)(4-(phenylamino)phenyl)methanone] | 3.85 µM | 0.42 nM
Cc1cnc(C2CCN(C(=O)c3ccc(-c4ccc5cc[nH]c5c4)cc3)CC2)[nH]1 [Example 27, (4-(1H-indol-6-yl)phenyl)(4-(5-methyl-1H-imidazol-2-yl)piperidin-1-yl)methanone] | 9.28 µM | 1.1 nM
O=C(c1ccc(-c2cc3ccccc3[nH]2)cc1)N1CCC(c2ncc[nH]2)CC1 [Example 30, (4-(1H-imidazol-2-yl)piperidin-1-yl)(4-(1H-indol-2-yl)phenyl)methanone] | 11 µM | 1.95 nM
O=C(c1ccc(-c2cccc3c2OCO3)cc1)N1CCC(c2ncc[nH]2)CC1 [Example 20, (4-(1H-imidazol-2-yl)piperidin-1-yl)(4-(benzo[d][1,3]dioxol-4-yl)phenyl)methanone] | 3.39 µM | 0.01 nM
O=C(c1ccc(-c2ccc(C(F)F)cc2)cc1)N1CCC(Nc2ncc[nH]2)CC1 [Example 33, (4-((1H-imidazol-2-yl)amino)piperidin-1-yl)(4′-(difluoromethyl)-[1,1′-biphenyl]-4-yl)methanone] | 5.29 µM | 18.6 nM
Cc1cnc(C2CCN(C(=O)c3ccc(-c4ccc(C(F)(F)F)cc4)cc3)CC2)[nH]1 [Example 4, (4-(5-methyl-1H-imidazol-2-yl)piperidin-1-yl)(4′-(trifluoromethyl)-[1,1′-biphenyl]-4-yl)methanone] | 1.13 µM | 21.9 nM
O=C(c1ccc(-c2cccc(C(F)(F)F)c2)cc1)N1CCC(c2ncc[nH]2)CC1 [Example 19, (4-(1H-imidazol-2-yl)piperidin-1-yl)(3′-(trifluoromethyl)-[1,1′-biphenyl]-4-yl)methanone] | 1.47 µM | 0.89 nM
O=C(c1ccc(-n2ccc3ccccc32)cc1)N1CCC(c2ncc[nH]2)CC1 [Example 18, (4-(1H-imidazol-2-yl)piperidin-1-yl)(4-(1H-indol-1-yl)phenyl)methanone] | 3.4 µM | 0.01 nM
O=C(c1ccc(-c2cccc3[nH]ccc23)cc1)N1CCC(c2ncc[nH]2)CC1 [Example 17, (4-(1H-imidazol-2-yl)piperidin-1-yl)(4-(1H-indol-4-yl)phenyl)methanone] | 5.87 µM | 0.04 nM
O=C(c1ccc2c(c1)[nH]c1ccccc12)N1CCC(c2ncc[nH]2)CC1 [Example 14, (4-(1H-imidazol-2-yl)piperidin-1-yl)(9H-carbazol-2-yl)methanone] | 5.72 µM | 1.3 nM
O=C(c1ccc(-c2ccc(F)cc2)cc1)N1CCC(Cc2ncc[nH]2)CC1 [CA-1, (4-((1H-imidazol-2-yl)methyl)piperidin-1-yl)(4′-fluoro-[1,1′-biphenyl]-4-yl)methanone, reference compound] | 0.546 µM | 0.3 nM
O=C(c1ccc2c(c1)oc1ccccc12)N1CCC(c2ncc[nH]2)CC1 [Example 15, (4-(1H-imidazol-2-yl)piperidin-1-yl)(dibenzo[b,d]furan-3-yl)methanone] | 2.01 µM | 0.65 nM
O=C(c1ccc(-c2c[nH]c3ccccc23)cc1)N1CCC(c2ncc[nH]2)CC1 [Example 23, (4-(1H-imidazol-2-yl)piperidin-1-yl)(4-(1H-indol-3-yl)phenyl)methanone] | 24.8 µM | 0.02 nM
O=C(c1ccc(-c2ccccc2)nc1)N1CCC(c2ncc[nH]2)CC1 [Example 11, (4-(1H-imidazol-2-yl)piperidin-1-yl)(6-phenylpyridin-3-yl)methanone] | 3.28 µM | 4.5 nM
CS(=O)(=O)c1cccc(-c2ccc(C(=O)N3CCC(c4ncc[nH]4)CC3)cc2)c1 [Example 2, (4-(1H-imidazol-2-yl)piperidin-1-yl)(3′-(methylsulfonyl)-[1,1′-biphenyl]-4-yl)methanone] | 72.3 µM | 52.3 nM
O=C(c1ccc(-c2ccc(F)cc2)cc1)N1CCC(Nc2ncc[nH]2)CC1 [Example 1, (4-((1H-imidazol-2-yl)amino)piperidin-1-yl)(4′-fluoro-[1,1′-biphenyl]-4-yl)methanone] | 1.54 µM | 2 nM
O=C(c1ccc(-c2ccc(C(F)F)cc2)cc1)N1CCC(Cc2ncc[nH]2)CC1 [Example 25, (4-((1H-imidazol-2-yl)methyl)piperidin-1-yl)(4′-(difluoromethyl)-[1,1′-biphenyl]-4-yl)methanone] | 3.4 µM | 0.46 nM
O=C(c1ccc(-c2cccc(Cl)c2)cc1)N1CCC(c2ncc[nH]2)CC1 [Example 10, (4-(1H-imidazol-2-yl)piperidin-1-yl)(3′-chloro-[1,1′-biphenyl]-4-yl)methanone] | 2.77 µM | 0.51 nM
